Measured values published in BindingDB's records for doi:10.1016/j.ejmech.2020.113045 (Rheinische Friedrich-Wilhelms-University of Bonn, 2021).

assay: Inhibition of ABCG2 (unknown origin) expressed in MDCK-II cells assessed as potentiation of SN-38-induced cytotoxicity measured after 72 hrs by MTT assay

Compound	EC50 [nM]
CNc1cc(Nc2ccc(C#N)cc2)nc(-c2ccccc2)n1	22
N#Cc1ccc(Nc2cc(Nc3ccc(O)cc3)nc(-c3ccccc3)n2)cc1	171
N#Cc1ccc(Nc2cc(NCc3ccccc3)nc(-c3ccccc3)n2)cc1	26
N#Cc1ccc(Nc2cc(NCc3cccnc3)nc(-c3ccccc3)n2)cc1	44
N#Cc1ccc(Nc2cc(Nc3ccccc3)nc(-c3ccccc3)n2)cc1	44
N#Cc1ccc(Nc2cc(Nc3ccccc3O)nc(-c3ccccc3)n2)cc1	147
CCCNc1cc(Nc2ccc(C#N)cc2)nc(-c2ccccc2)n1	15
N#Cc1ccc(Nc2cc(NCc3ccccn3)nc(-c3ccccc3)n2)cc1	16
N#Cc1ccc(Nc2cc(NCc3ccncc3)nc(-c3ccccc3)n2)cc1	73
CCCCNc1cc(Nc2ccc(C#N)cc2)nc(-c2ccccc2)n1	30
N#Cc1ccc(Nc2cc(Nc3cccc(O)c3)nc(-c3ccccc3)n2)cc1	181
CC(C)Nc1cc(Nc2ccc(C#N)cc2)nc(-c2ccccc2)n1	18
N#Cc1ccc(Nc2cc(NCCCCc3ccccc3)nc(-c3ccccc3)n2)cc1	187
N#Cc1ccc(Nc2cc(NCCCc3ccccc3)nc(-c3ccccc3)n2)cc1	67
N#Cc1ccc(Nc2cc(Nc3ccc(C#N)cc3)nc(-c3ccccc3)n2)cc1	231
N#Cc1ccc(Nc2cc(-c3ccccc3)nc(-c3ccccc3)n2)cc1	41

assay: Inhibition of ABCB1 (unknown origin) expressed in human A2780 ADR cells assessed as potentiation of daunorubicin-induced cytotoxicity measured after 72 hrs by MTT assay

Compound	EC50 [nM]
N#Cc1ccc(Nc2cc(Nc3ccccc3O)nc(-c3ccccc3)n2)cc1	34400
